Data set [1] has as its target T1, Potassium/sodium hyperpolarization-activated cyclic nucleotide-gated channel 4 (Homo sapiens, UniProt Q9Y3Q4).
T1 sequence (Q9Y3Q4 whole entry): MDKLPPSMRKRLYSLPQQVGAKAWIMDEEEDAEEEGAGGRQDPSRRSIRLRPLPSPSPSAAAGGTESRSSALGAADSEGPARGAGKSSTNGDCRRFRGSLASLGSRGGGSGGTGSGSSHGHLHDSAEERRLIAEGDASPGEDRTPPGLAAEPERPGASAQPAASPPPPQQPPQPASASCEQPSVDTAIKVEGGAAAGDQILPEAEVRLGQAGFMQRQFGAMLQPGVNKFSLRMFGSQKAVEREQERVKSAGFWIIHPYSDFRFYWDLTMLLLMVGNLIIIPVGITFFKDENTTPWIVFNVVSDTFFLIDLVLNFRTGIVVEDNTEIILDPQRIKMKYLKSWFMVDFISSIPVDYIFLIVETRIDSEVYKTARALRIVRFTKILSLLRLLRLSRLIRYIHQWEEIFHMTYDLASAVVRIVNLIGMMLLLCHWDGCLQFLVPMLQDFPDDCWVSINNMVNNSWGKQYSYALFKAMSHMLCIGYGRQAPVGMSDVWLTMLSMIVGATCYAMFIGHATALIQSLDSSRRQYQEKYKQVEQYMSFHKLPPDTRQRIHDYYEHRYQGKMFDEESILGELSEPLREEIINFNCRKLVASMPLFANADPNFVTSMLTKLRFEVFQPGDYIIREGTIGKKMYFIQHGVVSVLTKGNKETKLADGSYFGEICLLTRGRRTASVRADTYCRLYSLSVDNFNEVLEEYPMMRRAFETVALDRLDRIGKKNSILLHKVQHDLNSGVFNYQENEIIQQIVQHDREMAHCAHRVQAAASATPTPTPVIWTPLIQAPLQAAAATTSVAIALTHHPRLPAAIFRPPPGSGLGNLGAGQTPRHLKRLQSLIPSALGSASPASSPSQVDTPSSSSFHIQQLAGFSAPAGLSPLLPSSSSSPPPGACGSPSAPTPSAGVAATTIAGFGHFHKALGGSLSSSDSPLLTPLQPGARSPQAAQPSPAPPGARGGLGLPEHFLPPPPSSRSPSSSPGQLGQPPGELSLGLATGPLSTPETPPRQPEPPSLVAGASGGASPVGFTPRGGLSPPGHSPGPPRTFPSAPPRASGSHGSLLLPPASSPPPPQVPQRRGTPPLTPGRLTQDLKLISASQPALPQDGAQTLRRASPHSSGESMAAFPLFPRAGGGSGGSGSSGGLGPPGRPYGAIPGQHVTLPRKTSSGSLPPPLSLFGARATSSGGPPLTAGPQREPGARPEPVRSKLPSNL
Put plainly: Inhibition of human HCN4 heterologously expressed in HEK-293 cells after 30 mins by VIPR assay. The data set is classed as cell-based, HEK293.

Data set [2] has as its system Mus musculus. Description: Antiallodynic activity in ip dosed C57BL/6 mouse spared-nerve injury model assessed as reduction of tactile allodynia after 60 mins. The class given is functional. Conditions: C57BL/6, ip, 1 h.
For data set [3], the species on record is Mus musculus. Description: Toxicity in C57BL/6 mouse assessed as induction of bradycardia after 50 mins by ECG study. The class given is organism-based. Conditions: in vivo.
Data set [4] deals with T2, Potassium/sodium hyperpolarization-activated cyclic nucleotide-gated channel 1 (Homo sapiens, UniProt O60741).
T2 sequence (O60741 whole entry): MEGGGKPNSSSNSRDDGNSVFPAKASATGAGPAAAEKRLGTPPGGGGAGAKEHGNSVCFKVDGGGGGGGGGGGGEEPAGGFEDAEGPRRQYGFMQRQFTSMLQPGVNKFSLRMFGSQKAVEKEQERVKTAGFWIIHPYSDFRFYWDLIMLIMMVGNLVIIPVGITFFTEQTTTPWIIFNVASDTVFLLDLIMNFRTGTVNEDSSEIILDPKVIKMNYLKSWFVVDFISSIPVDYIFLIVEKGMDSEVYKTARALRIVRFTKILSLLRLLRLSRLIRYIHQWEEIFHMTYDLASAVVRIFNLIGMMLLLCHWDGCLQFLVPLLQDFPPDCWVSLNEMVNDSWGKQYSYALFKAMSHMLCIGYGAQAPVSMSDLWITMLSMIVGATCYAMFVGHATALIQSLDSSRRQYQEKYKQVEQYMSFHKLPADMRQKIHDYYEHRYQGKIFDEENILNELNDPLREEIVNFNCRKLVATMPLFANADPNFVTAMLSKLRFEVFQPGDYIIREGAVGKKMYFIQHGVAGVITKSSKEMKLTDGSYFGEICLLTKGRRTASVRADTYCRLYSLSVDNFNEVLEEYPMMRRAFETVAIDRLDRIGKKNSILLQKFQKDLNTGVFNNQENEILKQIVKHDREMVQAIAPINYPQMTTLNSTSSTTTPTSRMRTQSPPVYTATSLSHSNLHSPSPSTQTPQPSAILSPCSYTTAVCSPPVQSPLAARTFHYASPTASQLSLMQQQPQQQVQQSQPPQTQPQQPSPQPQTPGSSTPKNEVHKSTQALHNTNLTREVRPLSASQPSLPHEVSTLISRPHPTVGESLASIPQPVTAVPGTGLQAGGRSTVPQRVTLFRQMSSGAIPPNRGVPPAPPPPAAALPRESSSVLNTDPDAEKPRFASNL
Description: Inhibition of human HCN1 heterologously expressed in HEK-293 cells after 30 mins by VIPR assay. The class given is cell-based, HEK293.

The species named for data set [5] is Homo sapiens. Description: Selectivity for human HCN1 over human HCN4.
Data set [6] in a line: Half life in human liver microsomes. The class given is ADME, Microsome. Background: Liver microsomes are a subcellular fraction often used to study metabolism.
For data set [7], the species on record is Homo sapiens. Description: Selectivity for human HCN1 over human HCN2.

Results on 33 molecules are retold here after ChEMBL document CHEMBL1821572, “Discovery of a novel series of selective HCN1 blockers” (Bioorg Med Chem Lett, 2011).

As to `CCN(c1ccccc1)c1cc(NC)[n+](C)c(C)n1.[Cl-]`, the IC50 is 0.0316 µM in data set [1] and 0.158 µM in data set [4]. For the same molecule, the ED50 in data set [2] is 3 mg/kg. Also, in data set [3], the ED20 was 1.3 mg/kg.

For `CN1CCN(C2(CNC(=O)c3ccccc3O)Cc3ccccc3C2)CC1`, the concentration for half-maximal inhibition (IC50) in data set [1] and in data set [4] was more than 200 µM each time.

For the molecule `CCOc1ccccc1C(=O)NCC1(N2CCN(CC)CC2)CCCCC1`, the 50% inhibitory concentration (IC50) in data set [1] was 0.158 µM; in data set [4], 0.0316 µM. In addition, in data set [5], the Selectivity ratio stood at 10.

`CN1CCN(C2(CNC(=O)c3ccccc3OCc3ccccc3)Cc3ccccc3C2)CC1`: the IC50 in data set [1] was 2.51 µM; in data set [4], 0.631 µM.

With `COc1ccccc1C(=O)NCC1(N2CCN(C(C)C)CC2)CCCCC1`, the IC50 is 0.794 µM in data set [1] and 0.0316 µM in data set [4]. Besides, in data set [5], the Selectivity ratio was found to be 10.

With `CC(C)Oc1ccccc1C(=O)NCC1(N2CCN(C(C)C)CC2)CCCCC1`, the half-inhibitory concentration (IC50) was 1.58 µM in data set [1] and 0.251 µM in data set [4]. In addition, the Selectivity ratio in data set [5] was 10.

Take `CCOc1ccccc1C(=O)NCC1(N2CCN(C3CCC3)CC2)CCCCC1`: the half-inhibitory concentration (IC50) is 0.794 µM in data set [1] and 0.0794 µM in data set [4]. The Selectivity ratio in data set [5] is 10.

Take `CCc1ccccc1C(=O)NCC1(N2CCN(C(C)C)CC2)CCCCC1`: the concentration for half-maximal inhibition (IC50) in data set [1] was 79.4 µM; in data set [4] it was more than 200 µM. Also, in data set [5], the Selectivity ratio was 10.

With `CN1CCN(C2(CNC(=O)c3ccccc3Cl)CCCCC2)CC1`, the values for the IC50 in data set [1] and in data set [4] were 31.6 µM and more than 200 µM, respectively. Also, the Selectivity ratio in data set [5] was 10.

On to `CCOc1ccccc1C(=O)NCC1(N2CCN(c3ccccc3)CC2)CCCCC1`, for which the 50% inhibitory concentration (IC50) in data set [1] is 100 µM; in data set [4] it was more than 200 µM. Further, the Selectivity ratio in data set [5] turned out to be 10.

With `COc1ccc(C(=O)NCC2(N3CCN(C)CC3)Cc3ccccc3C2)cc1`, the IC50 is more than 200 µM in data set [1] and 100 µM in data set [4].

Take `COc1ccccc1C(=O)NCC1(N2CCN(C)CC2)Cc2ccccc2C1`: the IC50 in data set [1] was 20 µM; in data set [4], 1.26 µM.

`CN1CCN(C2(CNC(=O)c3ccccc3Cl)Cc3ccccc3C2)CC1`: the IC50 in data set [1] is 158 µM; in data set [4] it was 20 µM.

Turning to `CCOc1ccccc1C(=O)NCC1(N2CCN(C(C)C)CC2)CCCCC1`, the half-maximal inhibitory concentration (IC50) is 0.316 µM in data set [1] and 0.0158 µM in data set [4]. Also, in data set [5], the Selectivity ratio came to 10.

In the case of `CCOc1ccccc1C(=O)NCC1(N2CCN(C(C)C)CC2)Cc2ccccc2C1`, the IC50 in data set [1] was 3.16 µM; in data set [4] it was 0.631 µM.

Take `COc1ccccc1C(=O)NCC1(N2CCN(C)CC2)CCCCC1`: the values for the 50% inhibitory concentration (IC50) in data set [1] and in data set [4] were 5.01 µM and 0.398 µM, respectively. Besides, the Selectivity ratio in data set [5] is 10.

On to `Cc1ccccc1C(=O)NCC1(N2CCN(C)CC2)CCCCC1`, for which the IC50 in data set [1] is more than 200 µM; in data set [4], 63.1 µM. The Selectivity ratio in data set [5] was determined as 10.

As for `CCOc1ccccc1C(=O)NCC1(N2CCN(C(C)C)CC2)CCOCC1`, the figures for the half-maximal inhibitory concentration (IC50) in data set [1] and in data set [4] were 3.98 µM and 0.316 µM, respectively.

Consider `CN1CCN(C2(CNC(=O)c3ccccc3F)Cc3ccccc3C2)CC1`, for which the IC50 in data set [1] was more than 200 µM; in data set [4], 25.1 µM.

On to `CCOc1ccccc1C(=O)NCC1(N2CCN(C)CC2)CCCCC1`, for which the IC50 in data set [1] was 1.26 µM; in data set [4] it was 0.126 µM. For the same molecule, in data set [6], the half-life is 22 min. The Selectivity ratio in data set [5] worked out at 10.

For the molecule `COc1ccccc1C(=O)NCC(c1ccc(C)cc1)N1CCN(C)CC1` (configuration not stated), the IC50 was 20 µM in data set [1] and 2.51 µM in data set [4].

Turning to `COc1ccc([C@@H](C)CN(C/C=C\CN2C=Cc3cc(OC)c(OC)cc3CC2=O)C/C=C\CN2C=Cc3cc(OC)c(OC)cc3CC2=O)cc1OC`, the figures for the Selectivity ratio in data set [5] and in data set [7] were more than 150 and 30, respectively.

`COc1ccccc1C(=O)NCCN1CCN(C)CC1`: the negative-log IC50 (pIC50) in data set [1] (hek293) was more than 3.7. In data set [4], this molecule gave a concentration for half-maximal inhibition (IC50) of more than 200 µM.

Turning to `CCOc1ccccc1C(=O)NCC1(N2CCN(C3CC3)CC2)CCCCC1`, the figures for the half-maximal inhibitory concentration (IC50) in data set [1] and in data set [4] were 0.316 µM and 0.0501 µM, respectively. For the same molecule, the Selectivity ratio in data set [5] is 10.

Consider `COc1ccccc1C(=O)NCC1(N2CCN(C(C)C)CC2)CCN(c2ccccc2)CC1`, for which the results for the IC50 in data set [1] and in data set [4] were 5.01 µM and 0.631 µM, respectively.

As for `CN1CCN(C2(CNC(=O)c3ccccc3OC(F)(F)F)Cc3ccccc3C2)CC1`, the figures for the IC50 in data set [1] and in data set [4] were more than 200 µM and 25.1 µM, respectively.

Regarding `COc1ccccc1C(=O)NCC1(N2CCN(C)CC2)CCc2ccccc2C1` (configuration not stated), the IC50 was 6.31 µM in data set [1] and 1.58 µM in data set [4].

With `COc1ccccc1C(=O)NCC1(N2CCCCC2)Cc2ccccc2C1`, the IC50 was more than 200 µM in data set [1] and 50.1 µM in data set [4].

For the molecule `CCOc1ccccc1C(=O)NCC1(N2CCN(C3CCCC3)CC2)CCCCC1`, the results for the IC50 in data set [1] and in data set [4] were 0.794 µM and 0.2 µM, respectively. For the same molecule, the Selectivity ratio in data set [5] came out at 10.

Turning to `CCOc1ccccc1C(=O)NCC1(N2CCCCC2)Cc2ccccc2C1`, the values for the IC50 in data set [1] and in data set [4] were 39.8 µM and 15.8 µM, respectively.

Take `CCOc1ccccc1C(=O)NCC1(N2CCN(C)CC2)Cc2ccccc2C1`: the IC50 was 5.01 µM in data set [1] and 0.398 µM in data set [4].

Take `CCOc1ccccc1C(=O)NCC1(N2CCN(C)CC2)CCCC1`: the IC50 is 5.01 µM in data set [1] and 0.398 µM in data set [4].

`COc1cccc(C(=O)NCC2(N3CCN(C)CC3)Cc3ccccc3C2)c1`: the results for the concentration for half-maximal inhibition (IC50) in data set [1] and in data set [4] were more than 200 µM and 63.1 µM, respectively.

As usually defined, the IC50 is the point on the concentration scale where inhibition reaches its midpoint. High values mean a need for much substance, low ones inhibition by little substance. A word on the ED50: it is the dose that gives a 50% effect, or the effect in half of the subjects. As a reminder, the half-life is the time in which the quantity being followed falls by half. Lower therefore signals rapid decline. One may read the pIC50 as −log10 of the IC50, conventionally taken in molar units. A low value points to a high IC50.
